These results are taken from PMC11728977, “Crystallographic, kinetic, and calorimetric investigation of PKA interactions with L-type calcium channels and Rad GTPase” (The Journal of Biological Chemistry, 2024).

Data set [1] has as its target T1, PKAc:AMP-PNP (Mus musculus, UniProt P05132).
T1 construct: 6xHis (N, cleaved yes); made in house; host or cells: Escherichia coli Rosetta (DE3)pLysS
The data set is described as follows: Isothermal titration calorimetry of substrates binding to PKAc:AMP-PNP. As to the method: As an independent means to assess which substrate peptides are preferred by PKAc, we used ITC to determine the inherent affinities for the various peptides. ITC also provides the enthalpy and entropy changes upon binding and can thus help provide a rationale for different affinities. The ITC experiments were performed using excess Mg^2+ (5 mM) and 0.5 mM adenylyl-imidodiphosphate (AMP)-PNP (a nonhydrolyzable ATP analog) (Fig. 2).
ITC experiments were conducted using a MicroCal iTC200 (GE Healthcare, now Malvern) instrument. The ITC/assay buffer was used to dissolve peptides to a concentration of 1.25 to 4.3 mM. Substrate concentrations were optimized and chosen based on how much was needed to achieve sufficient signal to noise ratio. Rad Ser25 peptide contained a tryptophan residue, which allowed us to determine its concentration via 280 nm absorbance readings using an extinction coefficient of 5500 M^−1 cm^−1. For peptides lacking a tryptophan or tyrosine residue (Ser1981 WT and mutant peptides, Ser1718 peptide, Ser272 peptide, and Ser300 peptide), the amount of volume needed to achieve the desired concentration was calculated prior to diluting. Peptides were received as powder in 1 mg aliquots and using molecular weights of the peptide, the number of moles in each aliquot was determined. The number of moles was used to determine how much volume was required to achieve the desired concentration. AMP-PNP (Millipore Sigma) was dissolved in ITC/Assay buffer to a concentration of 100 mM, aliquoted in 20 μl volumes, and stored at −70 °C. Prior to each run, both titrant and titrand solutions were supplemented with AMP-PNP to a final concentration of 500 μM. The titration experiments were conducted at 4 °C with a stirring speed of 500 RPM. Each titration experiment was comprised of 20 injections with 230 s in between each injection. Each injection totalled 2.0 μl over 4 s except the first injection being 0.4 μl over 0.8 s. Background runs of peptide/substrate into ITC/assay buffer were conducted to generate a linear regression using the isotherm to subtract background heats from experimental runs. Peptides displaying large background heats were dialyzed in ITC/assay buffer for 60 min to remove contaminants remaining from peptide synthesis. The peptide into PKAc runs (experimental runs) utilized the same settings. The data was processed using Origin (Version 7.0, OriginLab) software (https://www.originlab.com/origin).
On the technique in general: ITC needs no label: the signal is the heat of the interaction.

For data set [2], the target named is PKAc (catalytic subunit of PKA, PKAcα 16-351) (Mus musculus, UniProt P05132). The data set is described as follows: ADP-Glo kinase assay, Michaelis-Menten kinetics of PKAc phosphorylation of substrates. Particulars: for kcat / Km / kcat/Km: ADP-Glo, 3 nM PKAc, 1 mM ATP, 5 mM Mg2+; for kcat / Km: substrate 0-256 μM, room temperature 30 min; for kcat: 50 mM Hepes pH 7.4, 150 mM KCl, mean ± SD of n = 3 or 4 biological replicates, less reliable for poor substrates; for Km: Michaelis-Menten fit; for Km / kcat/Km: mean ± SD of n = 3 or 4; for reduction in kcat/Km versus WT Ser1981 peptide: from kcat/Km of Table 2. On the technique in general: ADP-Glo turns the ADP formed in a reaction into a luminescent signal.
Procedure: We used enzyme kinetics to investigate the activity of catalytic subunit of PKA (PKAc) toward the three target sites within the C terminus of CaV1.2. We performed discontinuous kinase assays using an ADP-GloMax Assay kit.
Kinase assays were conducted using an ADP-Glo Kinase Assay Kit (Promega). […] Therefore, we performed assays with excess ATP (1 mM) and Mg^2+ (5 mM) to saturate PKAc prior to substrate binding. Reagents were prepared as described in the kit, aliquoted, and frozen at −20 °C prior to use. Reactions were conducted in 384-well solid white polystyrene microplates (Corning). Peptide substrates and EFPreIQ were dissolved and/or diluted to 800 μM using 50 mM Hepes (pH 7.4), 150 mM KCl, 5 mM MgCl2, and 4 mM TCEP. […] For peptides lacking tryptophan, the amount of volume needed to achieve a concentration of 800 μM was calculated prior to dissolving. The peptides/substrate was 2-fold serially diluted using the same buffer to create 11 reactions per curve ranging from 0 to 256 μM. ATP was added to each reaction to achieve a final concentration of 1 mM. Reactions were initiated by the addition of thawed PKAc at a final concentration of 3 nM at a final well volume of 20 μl. After allowing reactions to occur at room temperature for 30 min, 3 × 5 ml from each reaction in a curve was taken and mixed with 5 ml ADP-Glo Reagent for a total of three technical replicates per biological replicate. After 40 min, 10 ml of kinase detection reagent was added to each technical replicate and, after waiting 60 min, relative luminescence unit were measured using a VICTOR X4 Multilabel Plate Reader (PerkinElmer).
The relative luminescence unit values were converted to specific activity values via interpolation of a standard curve that was created in accordance with the manufacturer’s protocol. The three technical replicates were averaged to calculate a biological replicate value and plotted against peptide concentration using GraphPad 9 (Prism) software (https://www.graphpad.com/updates/prism-900-release-notes). Technical replicate values resulting from experimental error were removed from the dataset and subsequent averaging. […] The Michaelis–Menten kinetics fitting function was used to generate a nonlinear regression to calculate both a Km constant and Vmax value for each biological replicate curve. These Km constant and Vmax values were averaged and SDs are reported. Figures displaying data points and Michaelis–Menten curves depict the average specific activity values calculated from all biological replicates in the three or four experiments (n = 3 or n = 4) per peptide (n = 4 for Ser1981 and Ser272 peptides, n = 3 for all others).

Setting [3] is: 4 °C, 0.5 mM AMP-PNP, 5 mM MgCl2.
The mark [4] stands for this setting: ITC, 4 °C, 0.5 mM AMP-PNP, 5 mM MgCl2, mean ± SD, n = 3.

No end group written: not given here.

The kcat is the number of substrate molecules converted per active site and unit of time at saturation. As a reminder, the Km is the substrate concentration at which the rate is half of its maximum. As usually defined, the kcat/Km is the turnover number divided by the Michaelis constant.

As to RTLHDIGPEIRRAISGDL [S1718 peptide], the “binding to PKAc detected by ITC” value in data set [1] (setting [3]) was “could not detect any heat signals indicative of binding”. In addition, the kcat in data set [2] was determined as 3.4 ± 1.3 s⁻¹.
In the case of RGFLRSASLGRAASFHL [R1979A peptide], the “binding to PKAc detected by ITC” value in data set [1] (setting [3]) was “no longer detect any interaction”. For the same substance, in data set [2] (ADP-Glo kinase assay), the “enzymatic activity of PKAc toward the peptide” value was “very low”. The kcat in data set [2] worked out at 1.1 ± 0.1 s⁻¹.
With WGPAPPLHRRSMP [Rad S38 peptide], the “binding to PKAc detected by ITC” value in data set [1] (setting [3]) was “not”. The kcat was found to be 2 ± 1.9 s⁻¹ in data set [2] and 2.0 ± 1.9 s⁻¹ in data set [2] (listed as Ser38).
As for RGFLRSARLGRRASFHL [S1975R peptide], in data set [1] (setting [4]), the ΔG is -5.11 ± 2.2 kcal/mol and the “−TΔS” value was -8.6 ± 2.2 kcal/mol. Also, the “reduction in affinity for PKAc versus WT Ser1981 peptide” value in data set [1] (ITC, from KD of Table 3) is “more than 15 fold”. Also, in data set [2], the kcat amounted to 7.5 ± 0.9 s⁻¹, the Michaelis constant (Km) came out at 6.2 ± 2.7 µM, the catalytic efficiency (kcat/Km) amounted to 1.2e+06 ± 500000 M⁻¹ s⁻¹ and the “reduction in kcat/Km versus WT Ser1981 peptide” value came to 37%.
Consider RGFLRSASLGRRASAHL [F1982A peptide], for which the “reduction in kcat/Km versus WT Ser1981 peptide” value in data set [2] is given as about 26%.
Consider LRRASLG [Kemptide, reference compound], for which, in data set [2], the kcat was 19.0 ± 1.5 s⁻¹, the Michaelis-Menten constant (Km) amounted to 42.6 ± 2.4 µM and the specificity constant (kcat/Km) amounted to 470000 ± 50000 M⁻¹ s⁻¹.
Turning to SRKMAFRAKSKSCHD [Rad S300 peptide], in data set [1] (setting [3]), the “binding to PKAc detected by ITC” value is listed as “not”. Besides, the turnover number (kcat) in data set [2] amounted to 3.3 ± 1.4 s⁻¹.
For SNADYLTRDWSILG… [EFPreIQ (S1535)] the same measures were “could not detect any heat signals indicative of binding” and 1.3 ± 0.2 s⁻¹.
